Like-named read-outs stand apart in the source and are kept apart here.
Assays:
Borer = assay: Killing efficacy test against agricultural pests: borer test (leaf dip); type: in vivo; details: after 72 h
Method: (§1) Solution preparation: 2 mg of a test compound was weighed and dissolved in 200 µL of acetone, and the sample was diluted with an aqueous solution containing 0.1% Tween 80 to a required concentration to obtain a test solution. 1. Diamondback moth test: The test sample was prepared into solutions with final concentrations of 0.0156 mg/L, 0.125 mg/L, and 1 mg/L. Fresh and clean rapeseed leaves were cut into small pieces of 3 cm × 3 cm. The leaf pieces were immersed in the solutions with different concentrations for 10s, taken out, and air-dried naturally. The treated leaf pieces were placed into Petri dishes lined with moistened filter paper. 20 third-instar larvae of the diamondback moth were introduced into each Petri dish. The Petri dishes were placed in a constant-temperature room, and mortality rates were checked after 72 h. 2. Aphid test: The test sample was prepared into solutions with final concentrations of 2 mg/L, 10 mg/L, and 50 mg/L. Fresh cotton leaves of uniform size were immersed in the solutions with different concentrations for 10s, air-dried, and placed backside up on culture plates. 100 wingless adult aphids were introduced into each culture plate. The culture plates were sealed with paper strips and placed in a constant-temperature room. Mortality rates were checked after 72 h. 3. Mite test: The test sample was prepared into solutions with final concentrations of 0.02 mg/L, 0.2 mg/L, and 2 mg/L. Filter paper treated with the test solutions was placed in Petri dishes, and about 30 mites were placed at the center of each Petri dish. 0.05 g of mite feed was added to the center of each Petri dish after 30 min. The Petri dishes were placed in a constant-temperature room, and mortality rates were checked after 72 h. 4. Borer test: The test sample was prepared into solutions with final concentrations of 0.125 mg/L, 0.5 mg/L, and 2 mg/L. Fresh leaves were cut, immersed in the solutions with different concentrations for 10s, taken out, and air-dried. The treated leaves were placed in Petri dishes, and 30 borer larvae were introduced into each Petri dish. The Petri dishes were placed in a constant-temperature room, and mortality rates were checked after 72 h.

[1] = In vivo pharmacokinetic evaluation in mice; set-up: species or system ICR mice; details: for AUC: read-out: AUC^1-24 h; for Vd: in vivo, read-out: Vss
Method: 1. Drug preparation: 5% DMSO + 10% macrogol 15 hydroxystearate (BASF) + 85% saline (where drug solutions have a final concentration of 1.2 mg/mL for the IV group and 3 mg/mL for the PO group). 2. Experimental animals: Each group included three mice (ICR mice, SPF grade). 3. Administration method: The body weight was measured before administration, and the dose was calculated according to the body weight. The mice were administered through intravenous injection or oral gavage. 4. Blood collection: After administration, blood samples were collected in 0.083 h, 0.25 h, 0.5 h, 1 h, 2 h, 4 h, 6 h, 8 h, and 24 h. The blood samples were collected via the cheek. Each sample included about 0.05 mL of blood anticoagulated with EDTA-2K. The blood samples were placed on wet ice after collection. 5. Sample treatment: The blood samples were placed on ice after collection and centrifuged within 1 h to obtain plasma (centrifugation conditions: 6000 g, 3 min, 2-8°C). Plasma samples were stored in a -80°C refrigerator before analysis. 6. Data processing: Pharmacokinetic parameters were calculated using Phoenix WinNonlin 8.2.0 based on plasma concentration data at different time points.

mites = assay: Mite killing efficacy test with an in vitro model
Method: Mite collection: Live mites were gently picked up from a cage box with cotton swabs or small tweezers, 17-26 live mites per group.
Drug treatment and detection method: 100 µL of a drug solution with a different concentration (drug solution prepared by 3% DMSO solution + 97% water and having a target final concentration of 30 µM) was aspirated with a pipette and added to a 24-well plate for each group, ensuring full contact between the drug and the mites. The mites were separately incubated at normal temperature for 5 min, transferred from each plate to another dry 24-well plate with the top sealed, and air-dried for about 1 h. Mite actions were observed, and the number of dead mites/the total number of mites was recorded. Then, the 24-well plate containing the mites was cultured at room temperature and relatively high humidity. The number of dead mites/the total number of mites was counted separately after 1 h, 2 h, 4 h, 6 h, 8 h, 22 h, and 24 h (time points after drug addition), and mite mortality rates were calculated. The project ended 24 h after drug addition.
At a corresponding time point, a mite mortality rate greater than or equal to 90% is denoted as "+++", a mite mortality rate less than 90% and greater than or equal to 50% is denoted as "++", and a mite mortality rate less than 50% is denoted as "+".

Aphid = assay: Killing efficacy test against agricultural pests: aphid test (leaf dip); type: in vivo, aphids; details: after 72 h
Method: as §1

Mite = assay: Killing efficacy test against agricultural pests: mite test (treated filter paper); type: in vivo, mites; details: after 72 h
Method: as §1

Diamondback moth = assay: Killing efficacy test against agricultural pests: diamondback moth test (leaf dip); type: in vivo; details: Plutella xylostella, foliar, read-out: Corrected Mortality Rate (%)
Method: as §1

[2] = ICR, mouse, IV (6 mg/kg), plasma
[3] = ICR, mouse, IV (6 mg/kg), plasma, read-out: C0
[4] = ICR, mouse, PO (30 mg/kg), plasma
[5] = ICR, mouse, PO (30 mg/kg), plasma, read-out: Cmax
[6] = ICR, mouse, PO (30 mg/kg), plasma, read-out: Tmax
[7] = ICR, mouse, plasma, PO (30 mg/kg) vs IV (6 mg/kg)
[8] = 4 h, read-out: Mite Mortality Rate 4 h
[9] = 24 h, read-out: Mite Mortality Rate 24 h
[10] = 30 µM drug solution, 4 h after drug addition, read-out: Mite Mortality Rate 4 h
[11] = 30 µM drug solution, 24 h after drug addition, read-out: Mite Mortality Rate 24 h
[12] = DiamondBack Moth, 0.0156 mg/L, after 72 h
[13] = DiamondBack Moth, 0.125 mg/L, after 72 h
[14] = DiamondBack Moth, 1 mg/L, after 72 h

SMILES | Corrected Mortality Rate (%) (Borer; 0.125 mg/L) | Corrected Mortality Rate (%) (Borer; 0.5 mg/L) | Corrected Mortality Rate (%) (Borer; 2 mg/L) | clearance [1, 2] | half-life [1, 2] | AUC [1, 2] | C0 [1, 3] | half-life [1, 4] | AUC [1, 4] | Cmax [1, 5] | Tmax [1, 6] | Vd [1, 2] | bioavailability [1, 7] | mortality at 30 µM (mites; [8]) | Corrected Mortality Rate (%) (Aphid; 2 mg/L) | Corrected Mortality Rate (%) (Aphid; 10 mg/L) | Corrected Mortality Rate (%) (Aphid; 50 mg/L) | Corrected Mortality Rate (%) (Mite; 0.02 mg/L) | Corrected Mortality Rate (%) (Mite; 0.2 mg/L) | Corrected Mortality Rate (%) (Mite; 2 mg/L) | further results
Cc1cc(C2=NO[C@@](c3cc(Cl)cc(C(F)(F)F)c3)(C(F)(F)F)C2)ccc1C(=O)NCC(=O)NC1(C(F)(F)F)CC1 [Example 008, (S)-4-(5-(3-chloro-5-(trifluoromethyl)phenyl)-5-(trifluoromethyl)-4,5-dihydroisoxazol-3-yl)-2-m ethyl-N-(2-oxo-2-((1-(trifluoromethyl)cyclopropyl)amino)ethyl)benzamide] | 2% | 82% | 100% | 0.713 mL/min/kg | 37.6 h | 56100 ng·h/mL | 10300 ng/mL | 31.6 h | 233000 ng·h/mL | 15300 ng/mL | 9.33 h | 1.93 L/kg | 83.1% | > 90% | 86% | 100% | 100% | 62% | 92% | 100% | mortality at 30 µM (mites; [9]): > 90%; mortality at 0.0156 µg/mL (Diamondback moth; 72 h): 5%; mortality at 0.125 µg/mL (Diamondback moth; 72 h): 100%; mortality at 1 µg/mL (Diamondback moth; 72 h): 100%
Cc1cc(C2=NO[C@@](c3cc(Cl)cc(Cl)c3)(C(F)(F)F)C2)ccc1C(=O)NCC(=O)NC1(C(F)(F)F)CC1 [Example 011, (S)-4-(5-(3,5-dichlorophenyl)-5-(trifluoromethyl)-4,5-dihydroisoxazol-3-yl)-2-methyl-N-(2-oxo-2-((1-(trifluoromethyl)cyclopropyl)amino)ethyl)benzamide] | 29% | 93% | 100% | 1.18 mL/min/kg | 20 h | 48900 ng·h/mL | 6800 ng/mL | 27.8 h | 231000 ng·h/mL | 15900 ng/mL | 2.67 h | 1.96 L/kg | 94.6% | > 90% | 60% | 100% | 100% | 34% | 86% | 100% | mortality at 30 µM (mites; [9]): > 90%; mortality at 0.0156 µg/mL (Diamondback moth; 72 h): 0%; mortality at 0.125 µg/mL (Diamondback moth; 72 h): 100%; mortality at 1 µg/mL (Diamondback moth; 72 h): 100%
Cc1cc(C2=NOC(c3cc(Cl)c(Cl)c(C(F)(F)F)c3)(C(F)(F)F)C2)ccc1C(=O)NCC(=O)NC1(C(F)(F)F)CC1 (stereo not shown) [Example 029, 4-(5-(3,4-dichloro-5-(trifluoromethyl)phenyl)-5-(trifluoromethyl)-4,5-dihydroisoxazol-3-yl)-2-m ethyl-N-(2-oxo-2-((1-(trifluoromethyl)cyclopropyl)amino)ethyl)benzamide] | 0% | 50% | 100% | – | – | – | – | – | – | – | – | – | – | – | 5% | 100% | 100% | 54% | 70% | 100% | mortality at 30 µM (mites; [10]): > 90%; mortality at 30 µM (mites; [11]): > 90%; mortality at 0.0156 µg/mL (Diamondback moth; [12]): 0%; mortality at 0.125 µg/mL (Diamondback moth; [13]): 79%; mortality at 1 µg/mL (Diamondback moth; [14]): 100%
Cc1cc(C2=NOC(c3cc(C(F)(F)F)cc(C(F)(F)F)c3)(C(F)(F)F)C2)ccc1C(=O)NCC(=O)NC1(C(F)(F)F)CC1 (stereo not shown) [Example 030, 4-(5-(3,5-bis(trifluoromethyl)phenyl)-5-(trifluoromethyl)-4,5-dihydroisoxazol-3-yl)-2-methyl-N-(2-oxo-2-((1-(trifluoromethyl)cyclopropyl)amino)ethyl)benzamide] | 30% | 100% | 100% | – | – | – | – | – | – | – | – | – | – | – | 22% | 86% | 100% | 34% | 66% | 96% | mortality at 30 µM (mites; [10]): > 90%; mortality at 30 µM (mites; [11]): > 90%; mortality at 0.0156 µg/mL (Diamondback moth; [12]): 16%; mortality at 0.125 µg/mL (Diamondback moth; [13]): 63%; mortality at 1 µg/mL (Diamondback moth; [14]): 100%
Cc1cc(C2=NOC(c3cc(Cl)cc(Cl)c3)(C(F)(F)F)C2)ccc1C(=O)NCC(=O)NCC(F)(F)F (stereo not shown) [Fluralaner, fluralaner, reference compound] | – | – | – | – | – | – | – | – | – | – | – | – | – | – | – | – | – | – | – | – | AUC^1-24 h ([1]; IV (6 mg/kg), plasma): 22972 ng·h/mL; C0 ([1]; IV (6 mg/kg), plasma): 7151 ng/mL; CL ([1]; IV (6 mg/kg), plasma): 3.49 mL/min/kg; T1/2 ([1]; IV (6 mg/kg), plasma): 11.9 h; Vss ([1]; IV (6 mg/kg), plasma): 2.87 L/kg; F (%) ([1]; PO (30 mg/kg) vs IV (6 mg/kg)): 81.42%; AUC^1-24 h ([1]; PO (30 mg/kg), plasma): 93520 ng·h/mL; Cmax ([1]; PO (30 mg/kg), plasma): 8000 ng/mL; T1/2 ([1]; PO (30 mg/kg), plasma): 15.2 h; Tmax ([1]; PO (30 mg/kg), plasma): 1.67 h; Mite Mortality Rate 4 h (mites; 30 µM drug solution, 4 h after drug addition): +++ (a mite mortality rate greater than or equal to 90% is denoted as "+++"); Mite Mortality Rate 24 h (mites; 30 µM drug solution, 24 h after drug addition): +++ (a mite mortality rate greater than or equal to 90% is denoted as "+++")
